Results: PubChem BioAssay AID330 (DTP/NCI, 2004)
Values joined by “and” are separate entries in the source; they are usually repeats but may differ in a detail not shown here. Identical values can stand only once. Inconclusive results and toxic doses are left out.

System: P388 leukemia ip, CD2F1 mice, survival T/C
Test: NCI In Vivo Anticancer Drug Screen. Data for tumor model P388 Leukemia (intraperitoneal) in CD2F1 (CDF1) mice
Settings: endpoint: median survival time, higher = longer survival
Summary of the method: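 Mice carrying the transplanted tumor received test compound or vehicle. Survival was recorded in each group, and the value is the treated-group measurement divided by that of the vehicle-treated control group.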

[1] = dose: 50.0 mg/kg/injection, schedule: Q01DX005 (ip), vehicle: Klucel (hydroxypropylcellulose) (HPC)
[2] = dose: 100.0 mg/kg/injection, schedule: Q01DX005 (ip), vehicle: Klucel (hydroxypropylcellulose) (HPC)
[3] = dose: 50.0 mg/kg/injection, schedule: Q01DX009 (ip), vehicle: Klucel (hydroxypropylcellulose) (HPC)

`COc1cccc2c1C(=O)c1c(O)c3c(c(O)c1C2=O)C[C@@](O)(/C(C)=N/NC(=O)c1ccccc1)C[C@@H]3OC1CC(N)C(O)C(C)O1` (stereo not given in full) was tested, and the T/C (dose: 0.12 mg/kg/injection, schedule: Q01DX009 (ip), vehicle: water) was 99 % of control and 104 % of control and 89 % of control, the T/C (dose: 0.5 mg/kg/injection, schedule: Q01DX005 (ip), vehicle: suspension in saline) was 120 % of control and the T/C (dose: 0.5 mg/kg/injection, schedule: Q01DX005 (iv), vehicle: suspension in saline) was 109 % of control. The T/C (dose: 0.65 mg/kg/injection, schedule: Q01DX009 (ip), vehicle: saline) was 168 % of control, the T/C (dose: 1.0 mg/kg/injection, schedule: Q01DX005 (iv), vehicle: suspension in saline) was 110 % of control and the T/C (dose: 1.0 mg/kg/injection, schedule: Q01DX009 (ip), vehicle: other) was 150 % of control. For the same compound, the T/C (dose: 1.08 mg/kg/injection, schedule: Q01DX009 (ip), vehicle: saline) was 172 % of control, the T/C (dose: 1.56 mg/kg/injection, schedule: Q04DX003 (ip), vehicle: saline) was 177 % of control and the T/C (dose: 1.8 mg/kg/injection, schedule: Q01DX009 (ip), vehicle: saline) was 190 % of control. The T/C (dose: 2.0 mg/kg/injection, schedule: Q01DX005 (iv), vehicle: suspension in saline) was 108 % of control, the T/C (dose: 2.0 mg/kg/injection, schedule: Q01DX009 (ip), vehicle: other) was 166 % of control and the T/C (dose: 2.0 mg/kg/injection, schedule: Q04DX003 (ip), vehicle: water) was 160 % of control. The T/C (dose: 3.0 mg/kg/injection, schedule: Q01DX009 (ip), vehicle: saline) was 213 % of control, the T/C (dose: 3.0 mg/kg/injection, schedule: Q04DX003 (ip), vehicle: saline) was 150 % of control and the T/C (dose: 3.0 mg/kg/injection, schedule: Q04DX003 (ip), vehicle: water) was 115 % of control. For the same compound, the T/C (dose: 3.13 mg/kg/injection, schedule: Q04DX003 (ip), vehicle: saline) was 176 % of control, the T/C (dose: 3.2 mg/kg/injection, schedule: Q01DX001 (ip), vehicle: water) was 153 % of control and the T/C (dose: 3.24 mg/kg/injection, schedule: Q04DX003 (ip), vehicle: water) was 153 % of control. For the same compound, the T/C (dose: 4.0 mg/kg/injection, schedule: Q01DX005 (ip), vehicle: saline) was 181 % of control, the T/C (dose: 4.0 mg/kg/injection, schedule: Q01DX005 (iv), vehicle: saline) was 104 % of control and the T/C (dose: 4.0 mg/kg/injection, schedule: Q01DX009 (ip), vehicle: other) was 175 % of control. For the same compound, the T/C (dose: 4.2 mg/kg/injection, schedule: Q01DX001 (ip), vehicle: water) was 158 % of control, the T/C (dose: 5.0 mg/kg/injection, schedule: Q01DX001 (ip), vehicle: saline) was 168 % of control and the T/C (dose: 5.0 mg/kg/injection, schedule: Q04DX003 (ip), vehicle: saline) was 163 % of control. For the same compound, the T/C (dose: 5.3 mg/kg/injection, schedule: Q01DX009 (ip), vehicle: saline) was 157 % of control, the T/C (dose: 5.4 mg/kg/injection, schedule: Q04DX003 (ip), vehicle: water) was 171 % of control and the T/C (dose: 5.6 mg/kg/injection, schedule: Q01DX001 (ip), vehicle: water) was 165 % of control. For the same compound, the T/C (dose: 6.25 mg/kg/injection, schedule: Q04DX003 (ip), vehicle: saline) was 205 % of control, the T/C (dose: 7.5 mg/kg/injection, schedule: Q01DX001 (ip), vehicle: water) was 177 % of control and the T/C (dose: 8.0 mg/kg/injection, schedule: Q01DX001 (ip), vehicle: saline) was 163 % of control. For the same compound, the T/C (dose: 8.0 mg/kg/injection, schedule: Q01DX005 (ip), vehicle: saline) was 229 % of control, the T/C (dose: 8.0 mg/kg/injection, schedule: Q01DX005 (ip), vehicle: suspension in saline) was 174 % of control and the T/C (dose: 8.0 mg/kg/injection, schedule: Q01DX005 (iv), vehicle: suspension in saline) was 151 % of control. The T/C (dose: 8.0 mg/kg/injection, schedule: Q01DX009 (ip), vehicle: other) was 189 % of control, the T/C (dose: 8.0 mg/kg/injection, schedule: Q01DX009 (ip), vehicle: saline) was 90 % of control and the T/C (dose: 8.0 mg/kg/injection, schedule: Q04DX003 (ip), vehicle: saline) was 163 % of control. For the same compound, the T/C (dose: 8.0 mg/kg/injection, schedule: Q04DX003 (ip), vehicle: water) was 116 % of control and 190 % of control and 215 % of control, the T/C (dose: 8.3 mg/kg/injection, schedule: Q01DX009 (ip), vehicle: saline) was 90 % of control and the T/C (dose: 9.0 mg/kg/injection, schedule: Q04DX003 (ip), vehicle: water) was 175 % of control. The T/C (dose: 10.0 mg/kg/injection, schedule: Q01DX001 (ip), vehicle: clinical formulation) was 160 % of control, the T/C (dose: 10.0 mg/kg/injection, schedule: Q01DX001 (ip), vehicle: water) was 181 % of control and the T/C (dose: 12.0 mg/kg/injection, schedule: Q01DX001 (ip), vehicle: clinical formulation) was 164 % of control. The T/C (dose: 12.5 mg/kg/injection, schedule: Q04DX003 (ip), vehicle: saline) was 187 % of control, the T/C (dose: 13.3 mg/kg/injection, schedule: Q01DX001 (ip), vehicle: saline) was 113 % of control and the T/C (dose: 13.3 mg/kg/injection, schedule: Q04DX003 (ip), vehicle: saline) was 109 % of control. For the same compound, the T/C (dose: 14.0 mg/kg/injection, schedule: Q01DX001 (ip), vehicle: clinical formulation) was 167 % of control, the T/C (dose: 16.0 mg/kg/injection, schedule: Q01DX001 (ip), vehicle: clinical formulation) was 188 % of control and the T/C (dose: 16.0 mg/kg/injection, schedule: Q01DX005 (iv), vehicle: saline) was 211 % of control. For the same compound, the T/C (dose: 16.0 mg/kg/injection, schedule: Q04DX003 (ip), vehicle: water) was 180 % of control and 318 % of control, the T/C (dose: 18.0 mg/kg/injection, schedule: Q01DX001 (ip), vehicle: clinical formulation) was 179 % of control and the T/C (dose: 22.2 mg/kg/injection, schedule: Q01DX001 (ip), vehicle: saline) was 95 % of control. For the same compound, the T/C (dose: 24.0 mg/kg/injection, schedule: Q04DX003 (ip), vehicle: water) was 171 % of control, the T/C (dose: 32.0 mg/kg/injection, schedule: Q04DX003 (ip), vehicle: water) was 163 % of control and 233 % of control and the T/C (dose: 48.0 mg/kg/injection, schedule: Q04DX003 (ip), vehicle: water) was 117 % of control. For the same compound, the T/C (dose: 64.0 mg/kg/injection, schedule: Q04DX003 (ip), vehicle: water) was 109 % of control and 114 % of control and the T/C (dose: 96.0 mg/kg/injection, schedule: Q04DX003 (ip), vehicle: water) was 89 % of control.

With `CC1NC(=O)NC(=O)C1=S` (stereo not given) the T/C [1] was 112 % of control, the T/C [2] was 111 % of control and the T/C (dose: 200.0 mg/kg/injection, schedule: Q01DX005 (ip), vehicle: Klucel (hydroxypropylcellulose) (HPC)) was 113 % of control.

For `C/C=C/C=C1/OC(C)=C(C(=O)OCC)C1=O`, the T/C (dose: 6.25 mg/kg/injection, schedule: Q01DX009 (ip), vehicle: Klucel (hydroxypropylcellulose) (HPC)) was 107 % of control, the T/C (dose: 12.5 mg/kg/injection, schedule: Q01DX009 (ip), vehicle: Klucel (hydroxypropylcellulose) (HPC)) was 111 % of control and the T/C [3] was 123 % of control.

For `c1ccc2c(c1)N=NN1CCCOC21` (stereo not given), the T/C (dose: 60.0 mg/kg/injection, schedule: Q01DX005 (ip), vehicle: saline with Tween-80) was 100 % of control, the T/C (dose: 120.0 mg/kg/injection, schedule: Q01DX005 (ip), vehicle: saline with Tween-80) was 95 % of control and the T/C (dose: 240.0 mg/kg/injection, schedule: Q01DX005 (ip), vehicle: saline with Tween-80) was 99 % of control.

In the case of `c1ccc(C(c2ccccc2)[P+](c2ccccc2)(c2ccccc2)c2ccccc2)cc1`, the T/C (dose: 0.15 mg/kg/injection, schedule: Q01DX009 (ip), vehicle: Klucel (hydroxypropylcellulose) (HPC)) is reported as 101 % of control, the T/C (dose: 0.31 mg/kg/injection, schedule: Q01DX009 (ip), vehicle: Klucel (hydroxypropylcellulose) (HPC)) is reported as 109 % of control and 114 % of control and the T/C (dose: 0.63 mg/kg/injection, schedule: Q01DX009 (ip), vehicle: Klucel (hydroxypropylcellulose) (HPC)) is reported as 111 % of control. For the same compound, the T/C (dose: 1.25 mg/kg/injection, schedule: Q01DX009 (ip), vehicle: Klucel (hydroxypropylcellulose) (HPC)) was 118 % of control and 123 % of control and 86 % of control.

`CCN(CC)C(=S)Sc1nsc(SC(=S)N(CC)CC)c1C#N` was tested, and the T/C (dose: 50.0 mg/kg/injection, schedule: Q01DX009 (ip), vehicle: saline with Tween-80) was 94 % of control, the T/C (dose: 100.0 mg/kg/injection, schedule: Q01DX009 (ip), vehicle: saline with Tween-80) was 94 % of control and the T/C (dose: 200.0 mg/kg/injection, schedule: Q01DX009 (ip), vehicle: saline with Tween-80) was 94 % of control.

For `O=C(Nc1ccc2c(c1)Cc1cc(NC(=O)C34CC5CC(CC(C5)C3)C4)ccc1-2)C12CC3CC(CC(C3)C1)C2`, the T/C (dose: 100.0 mg/kg/injection, schedule: Q04DX002 (ip), vehicle: saline with Tween-80) was 88 % of control, the T/C (dose: 200.0 mg/kg/injection, schedule: Q04DX002 (ip), vehicle: saline with Tween-80) was 89 % of control and the T/C (dose: 400.0 mg/kg/injection, schedule: Q04DX002 (ip), vehicle: saline with Tween-80) was 92 % of control.

`CCc1cc(COC(C)=O)on1` was tested, and the T/C [3] was 105 % of control, the T/C (dose: 100.0 mg/kg/injection, schedule: Q01DX009 (ip), vehicle: Klucel (hydroxypropylcellulose) (HPC)) was 109 % of control and the T/C (dose: 200.0 mg/kg/injection, schedule: Q01DX009 (ip), vehicle: Klucel (hydroxypropylcellulose) (HPC)) was 109 % of control.

With `COc1ccc(C(Cc2ccccc2)NCCNCCO)cc1` (stereo not given) the T/C [1] was 101 % of control and the T/C [2] was 101 % of control.
